“Also recorded” adds a separate entry of the source. Where two headings read alike, the source gives them in different places.

The source of these data is patent publication US5352608A (priority 1992, dated 1994).

Assay [1] deals with Rhodobacter sphaeroides 2.4.1. The format is cell-based.
Another assay relates to R. sphaeroides 2.4.1. The format is cell-based, Rhodobacter sphaeroides.
Assay [2] relates to Rhodopseudomonas palustris 1e5. Kind of assay: Intrinsic HLR to TeO3^2- (MIC). The class given is cell-based.
Another assay relates to E. coli. The conditions noted are these: exogenously supplied L-methionine; Scala and Williams; cited from earlier work.
Setting [3] is: Table 4, photoheterotrophic, 2 mM PO4^3-, 10 W/m^2.
The mark [4] stands for this setting: Table 4, photoheterotrophic, SMM succinate, 10 W/m^2.

As to Na2 SiO4, in assay [1], the “Decrease in resistance when extracellular phosphate reduced ten-fold” value was “three- to four-fold”, the “Intrinsic resistance relative to γ-3 Proteobacteria” value is on record as “twenty-fold”, the “MIC Low-PO4^3- Medium” value is 100 µg/mL and the “MIC Standard Medium” value was found to be 300 µg/mL. In assay [1], the Resistance in words result is reported as “resistance was shown”. Besides, in the assay with R. sphaeroides 2.4.1, the “Gas evolution in words” value was “no gas evolution was observed” and the “Reduction to elemental state” value is given as “Neither IO4^-, SiO3^2-, nor SiO^42- was reduced to its elemental state”.

On to `O=[Si]([O-])[O-].[Na+].[Na+]` [Na2 SiO3], for which, in assay [1], the “Decrease in resistance when extracellular phosphate reduced ten-fold” value was “three- to four-fold”, the “Intrinsic resistance relative to γ-3 Proteobacteria” value was “twenty-fold”, the “MIC Low-PO4^3- Medium” value came to 100 µg/mL and the “MIC Standard Medium” value is 400 µg/mL. Also, the Resistance in words result in assay [1] was “resistance was shown”. For the same compound, in the assay on R. sphaeroides 2.4.1, the “Gas evolution in words” value is recorded as “no gas evolution was observed” and the “Reduction to elemental state” value is listed as “Neither IO4^-, SiO3^2-, nor SiO^42- was reduced to its elemental state”.

For `[Na+].[Na+].[O]=[W](=[O])([O-])[O-]` [Na2 WO4], in assay [1], the “Effect of extracellular phosphate on resistance” value (from here on “Effect … on resistance”) was “unaffected by extracellular phosphate levels” and the Resistance in words entry is “resistance was shown”. In assay [1] (setting [3]), the “MIC Low-PO4^3- Medium” value was found to be 1600 µg/mL. In addition, the “MIC Standard Medium” value in assay [1] (setting [4]) came out at 1600 µg/mL. Moreover, in the assay on R. sphaeroides 2.4.1, the “Gas evolution in words” value is listed as “no gas was evolved” and the “Reduction to elemental state” value is listed as “not reduced to their elemental states”.

Turning to NaSiO4, in assay [1], the “MIC Low-PO4^3- Medium” value stood at 150 µg/mL and the “MIC Standard Medium” value was determined as 400 µg/mL.

For the compound `[Na+].[Na+].[O]=[Mo](=[O])([O-])[O-]` [Na2 MoO4], in assay [1], the “Effect … on resistance” value was “unaffected by extracellular phosphate levels” and the Resistance in words result was “resistance was shown”. For the same compound, the “MIC Low-PO4^3- Medium” value in assay [1] (setting [3]) came to 1500 µg/mL. Moreover, the “MIC Standard Medium” value in assay [1] (setting [4]) was 1400 µg/mL. Also, in the assay with R. sphaeroides 2.4.1, the “Gas evolution in words” value was “no gas was evolved” and the “Reduction to elemental state” value was “not reduced to their elemental states”.

As to `N[C@@H](CCC(=O)N[C@@H](CS)C(=O)NCC(=O)O)C(=O)O` [glutathione, reference compound], the “Effect of medium supplement on HLR” value in assay [1] is “Neither cystine, glutathione nor thioglycollate, however, decreased HLR”.

Take `[K+].[O]=[Mn](=[O])(=[O])[O-]` [KMnO4]: in assay [1], the MIC was < 20 µg/mL, the “MIC Low-PO4^3- Medium” value is < 10 µg/mL and the “MIC Standard Medium” value came out at 20 µg/mL.

With `[NH4+].[O]=[V](=[O])[O-]` [NH4 VO3], in assay [1], the “Effect on cell growth as saturated solution” value (“Effect on cell growth” for short) was “did not affect cell growth”, the “MIC Low-PO4^3- Medium” value is reported as “sat'd sol'n”, the “MIC Standard Medium” value is listed as “sat'd sol'n” and the Resistance in words entry is recorded as “shows resistance”.

On to `O=[Te](=O)([O-])[O-].[K+].[K+]` [K2 TeO4], for which the “Intrinsic resistance relative to E. coli” value in assay [2] is on record as 40 times. In addition, in assay [1], the “MIC Low-PO4^3- Medium” value was determined as 500 µg/mL, the “MIC Standard Medium” value is 500 µg/mL, the Relative toxicity entry is “SeO4^2- >TeO4^2- >TeO3^2- >SeO3^2- >Rh2 O3.5H2 O” and the Resistance in words entry is recorded as “High level resistance”. For the same compound, in the assay with R. sphaeroides 2.4.1, the “Appearance of cells / metal deposit” value is listed as “intracellular accumulation of a dense metal deposit” and the “Gas evolution in words” value was “Copious gas evolution”.

`O=[Se](=O)([O-])[O-].[Na+].[Na+]` [Na2 SeO4]: in assay [1], the “MIC Low-PO4^3- Medium” value turned out to be 100 µg/mL, the “MIC Standard Medium” value was found to be 150 µg/mL, the Relative toxicity entry is “SeO4^2- >TeO4^2- >TeO3^2- >SeO3^2- >Rh2 O3.5H2 O” and the Resistance in words result is “High level resistance”. The “Appearance of cells / metal deposit” value with R. sphaeroides 2.4.1 is given as “bright red in color”.

`CSCC[C@H](N)C(=O)O` [L-methionine, reference compound]: the “Effect of medium supplement on HLR” value in assay [1] is “no affect on HLR to TeO3^2-”. For the same compound, the “TeO3^2- resistance enhancement by L-methionine” value in the assay with E. coli was “two-fold”.

In the case of `[O-2].[O-2].[O-2].[Sb+3].[Sb+3]` [Sb2 O3], in assay [1], the “Effect on cell growth” value is “did not affect cell growth”, the “MIC Low-PO4^3- Medium” value is recorded as “sat,d sol'n”, the “MIC Standard Medium” value was “sat'd sol'n” and the Resistance in words result is on record as “shows resistance”.

In the case of `[O]=[Mo](=[O])=[O]` [MoO3], in assay [1], the “Effect on cell growth” value is recorded as “did not affect cell growth”, the “MIC Low-PO4^3- Medium” value was “sat'd sol'n”, the “MIC Standard Medium” value is “sat'd sol'n” and the Resistance in words entry is recorded as “shows resistance”.

`O=S([O-])[O-].[Na+].[Na+]` [Na2 SO3]: in assay [1], the “Effect … on resistance” value was “unaffected by extracellular phosphate levels”, the “MIC Low-PO4^3- Medium” value was found to be 500 µg/mL, the “MIC Standard Medium” value stood at 600 µg/mL and the Resistance in words entry was “resistance was shown”. In the assay on R. sphaeroides 2.4.1, the “Gas evolution in words” value was “no gas was evolved” and the “Reduction to elemental state” value is reported as “not reduced to their elemental states”.

Consider `O=C(O)CS` [thioglycollate, reference compound], for which the “Effect of medium supplement on HLR” value in assay [1] is recorded as “Neither cystine, glutathione nor thioglycollate, however, decreased HLR”.

On to `O.O.O.O.O.[O]=[Rh][O][Rh]=[O]` [Rh2 O3.5H2 O, rhodium sesquioxide], for which, in assay [1], the “Effect on cell growth” value is on record as “did not affect cell growth”, the “MIC Low-PO4^3- Medium” value was “sat'd sol'n”, the “MIC Standard Medium” value is “sat'd sol'n” and the Relative toxicity result is given as “SeO4^2- >TeO4^2- >TeO3^2- >SeO3^2- >Rh2 O3.5H2 O”. Besides, the Resistance in words result in assay [1] is given as “High level resistance; also recorded: shows resistance”. Further, the “Appearance of cells / metal deposit” value in the assay with R. sphaeroides 2.4.1 is “grayish bronze”.

For the compound `[O-][I+3]([O-])([O-])O` [IO4^-], in assay [1], the “Decrease in resistance when extracellular phosphate reduced ten-fold” value is “three- to four-fold”, the “Intrinsic resistance relative to γ-3 Proteobacteria” value is listed as “twenty-fold” and the Resistance in words entry was “resistance was shown”. Besides, in the assay on R. sphaeroides 2.4.1, the “Gas evolution in words” value is “no gas evolution was observed” and the “Reduction to elemental state” value is recorded as “Neither IO4^-, SiO3^2-, nor SiO^42- was reduced to its elemental state”.

Consider `O=[Se]([O-])[O-].[Na+].[Na+]` [Na2 SeO3], for which, in assay [1], the “MIC Low-PO4^3- Medium” value worked out at 500 µg/mL, the “MIC Standard Medium” value worked out at 800 µg/mL, the Relative toxicity result is given as “SeO4^2- >TeO4^2- >TeO3^2- >SeO3^2- >Rh2 O3.5H2 O” and the Resistance in words result is “High level resistance”. In addition, the “Appearance of cells / metal deposit” value with R. sphaeroides 2.4.1 was “bright red in color”.

As to Na2 HAsO4, in assay [1], the “Effect … on resistance” value is on record as “unaffected by extracellular phosphate levels” and the Resistance in words result is on record as “resistance was shown”. In addition, the “MIC Low-PO4^3- Medium” value in assay [1] (setting [3]) worked out at 1600 µg/mL. Moreover, the “MIC Standard Medium” value in assay [1] (setting [4]) was 1500 µg/mL. Besides, in the assay with R. sphaeroides 2.4.1, the “Gas evolution in words” value is “no gas was evolved” and the “Reduction to elemental state” value is “not reduced to their elemental states”.

With Na2 SnO4, in assay [1], the “Effect … on resistance” value is given as “unaffected by extracellular phosphate levels”, the “MIC Low-PO4^3- Medium” value was found to be 800 µg/mL, the “MIC Standard Medium” value came out at 800 µg/mL and the Resistance in words entry is “resistance was shown”. Moreover, in the assay with R. sphaeroides 2.4.1, the “Gas evolution in words” value is recorded as “no gas was evolved” and the “Reduction to elemental state” value is “not reduced to their elemental states”.

On to `[O]=[Sn]=[O]` [SnO2], for which, in assay [1], the “Effect on cell growth” value is recorded as “did not affect cell growth”, the “MIC Low-PO4^3- Medium” value is “sat'd sol'n”, the “MIC Standard Medium” value was “sat'd sol'n” and the Resistance in words entry is reported as “shows resistance”.

Turning to `N[C@@H](CS)C(=O)O` [L-cysteine, reference compound], the “Effect of medium supplement on HLR” value in assay [1] is “solely responsible for the increased sensitivity to TeO3^2-”.

Turning to `N[C@@H](CSSC[C@H](N)C(=O)O)C(=O)O` [cystine, reference compound], in assay [1], the “Effect of medium supplement on HLR” value is recorded as “Neither cystine, glutathione nor thioglycollate, however, decreased HLR”.

For the compound `[O]=[Cr](=[O])=[O]` [CrO3], in assay [1], the minimum inhibitory concentration (MIC) was < 20 µg/mL, the “MIC Low-PO4^3- Medium” value was < 10 µg/mL and the “MIC Standard Medium” value came out at 20 µg/mL.

For the compound `[Na+].[Na+].[O]=[Cr](=[O])([O-])[O-]` [Na2 CrO4], in assay [1], the MIC was < 20 µg/mL, the “MIC Low-PO4^3- Medium” value is 20 µg/mL and the “MIC Standard Medium” value was found to be 10 µg/mL.
